From article PMC3388095, “Fluorophore Labeled Kinase Detects Ligands That Bind within the MAPK Insert of p38α Kinase” (PLoS ONE, 2012) come the findings set out here.

pKd: −log10 of the molar value. “And” between values parts separate entries of the source, which are not always exact repeats. Equal values may be shown once.

The target in one assay is Lck (Homo sapiens, UniProt P06239). Nature of the assay: Kinase selectivity profile, 33P-ATP filter-binding assay. Format: biochemical. The protocol:
(§1) Figure 5 Kinase selectivity profile of 1b. Compound 1b was profiled against a selected panel of 95 different kinases at a concentration of 10 µM employing a radioactive (^33P-ATP) filter-binding assay (National Centre for Protein Kinase Profiling, Dundee). The numbers represent the remaining kinase activity in %. […] TEXT PRINTED IN THE PICTURE: no label printed: Aurora B: 53; MNK2: 67; MINK1: 69; HER4: 71; MKK1: 75; PKBβ: 75; PHK: 76; PIM2: 76; PIM3: 77; CHK2: 78; PKD1: 79; TBK1: 79; PAK4: 80; Lck: 80; GSK3β: 80; IGF-1R: 81; p38δ MAPK: 81; PIM1: 82; SRPK1: 83; SmMLCK: 83; MAPKAP-K3: 84; EPH A2: 85; MELK: 85; CK2: 85; CK1: 86; CAMK1: 86; PLK1: 87; MST2: 87; IR-HIS: 87; BTK: 87; HIPK1: 87; p38α MAPK: 88; DYRK2: 88; JNK3: 88; PAK5: 88; IKKε: 89; p38β MAPK: 89; NUAK1: 90; PAK2: 90; MNK1: 91; ERK8: 91; GCK: 91; PRAK: 91; MLK1: 92; SGK1: 92; PAK6: 92; TTK: 92; BRSK2: 92; MARK4: 93; CHK1: 93; RIPK2: 94; CDK2-Cyclin A: 94; JNK1: 94; AMPK: 94; VEG-FR: 95; DYRK1A: 95; CAMKKβ: 95; PKCα: 96; S6K1: 96; MSK1: 96; PKCz: 96; YES1: 96; RSK1: 97; IRAK4: 97; DYRK3: 97; IKKβ: 97; ERK2: 98; MLK3: 98; RSK2: 98; LKB1: 98; MAPKAP-K2: 98; ERK1: 99; FGF-R1: 99; SYK: 99; MST4: 99; MARK3: 99; MARK2: 100; PDK1: 100; JNK2: 101; HIPK2: 101; BRSK1: 102; EF2K: 102; PRK2: 103; Aurora A: 104; IRR: 104; CSK: 104; PKA: 104; NEK6: 105; p38γ MAPK: 105; Src: 107; PKBα: 109; ROCK 2: 109; EPH-B3: 112; HIPK3: 115; NEK2α: 119 DOUBTS OF THE COPYIST ABOUT THIS PICTURE: The picture prints no compound label and no measure or unit for the numbers; only the colour scale 'Inhibition weak/strong' is printed. / PKCz: the last letter may be z or ζ / NEK2α: the last letter may be a or α / IKKε: the last letter may be ε or e

The target of a further assay is PIM2 (Homo sapiens, UniProt Q9P1W9). Described as above. Format: biochemical. The protocol: as §1
Chain of PIM2 (Q9P1W9 whole entry): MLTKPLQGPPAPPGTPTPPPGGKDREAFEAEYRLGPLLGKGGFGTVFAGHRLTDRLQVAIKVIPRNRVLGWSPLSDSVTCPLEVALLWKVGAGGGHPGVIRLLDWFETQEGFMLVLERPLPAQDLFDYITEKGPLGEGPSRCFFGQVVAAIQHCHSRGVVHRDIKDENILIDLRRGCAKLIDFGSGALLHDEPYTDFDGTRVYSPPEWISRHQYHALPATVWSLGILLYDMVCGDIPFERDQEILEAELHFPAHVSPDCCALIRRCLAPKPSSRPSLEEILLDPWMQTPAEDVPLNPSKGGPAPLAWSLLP
In the next assay the target is NEK2α (Homo sapiens, UniProt P51955). The assay is described as above. Format: biochemical. The protocol: as §1
Chain of NEK2α (P51955 whole entry): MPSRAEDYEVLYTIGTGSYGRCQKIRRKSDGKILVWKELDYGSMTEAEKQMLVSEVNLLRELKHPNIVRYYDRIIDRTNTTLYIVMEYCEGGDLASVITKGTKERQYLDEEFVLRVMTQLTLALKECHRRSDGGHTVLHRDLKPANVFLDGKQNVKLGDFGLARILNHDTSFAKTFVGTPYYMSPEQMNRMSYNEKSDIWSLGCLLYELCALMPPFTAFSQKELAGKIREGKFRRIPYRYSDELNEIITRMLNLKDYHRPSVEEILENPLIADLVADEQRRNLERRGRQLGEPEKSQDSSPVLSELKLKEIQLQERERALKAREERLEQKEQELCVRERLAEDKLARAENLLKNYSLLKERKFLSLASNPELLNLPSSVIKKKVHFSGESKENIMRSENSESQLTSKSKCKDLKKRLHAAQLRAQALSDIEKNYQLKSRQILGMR
A further assay addresses TTK (Homo sapiens, UniProt P33981). The description is as above. Format: biochemical. How it is done: as §1
In a further assay the target is PIM3 (Homo sapiens, UniProt Q86V86). The assay is described as above. Format: biochemical. The protocol:
as §1

The target in a further assay is SRPK1 (Homo sapiens, UniProt Q96SB4). Described as above. Format: biochemical. The protocol:
as §1

The target in another assay is YES1 (Homo sapiens, UniProt P07947). The description is as above. Format: biochemical. How it is done:
as §1

The target of the next assay is MAPKAP-K2 (Homo sapiens, UniProt P49137). Described as above. Format: biochemical. How it is done: as §1
Chain of MAPKAP-K2 (P49137 whole entry): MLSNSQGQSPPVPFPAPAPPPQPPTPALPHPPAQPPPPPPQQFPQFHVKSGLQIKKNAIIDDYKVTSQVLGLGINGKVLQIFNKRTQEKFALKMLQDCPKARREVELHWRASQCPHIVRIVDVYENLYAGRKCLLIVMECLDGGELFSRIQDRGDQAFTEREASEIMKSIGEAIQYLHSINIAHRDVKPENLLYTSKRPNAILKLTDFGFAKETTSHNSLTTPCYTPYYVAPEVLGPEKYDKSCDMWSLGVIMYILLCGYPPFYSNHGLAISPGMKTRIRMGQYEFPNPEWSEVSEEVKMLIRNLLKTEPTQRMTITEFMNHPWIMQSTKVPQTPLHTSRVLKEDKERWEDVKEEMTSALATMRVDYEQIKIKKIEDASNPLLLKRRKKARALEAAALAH
The target in a further assay is T1, p38α MAPK insert (Homo sapiens, UniProt Q16539, C119S/C162S/S252C).
T1 construct: His-tag with PreScission Protease cleavage site (N); made in house; host or cells: E. coli BL21(DE3) Codon+RIL
T1 sequence (Q16539 whole entry C119S/C162S/S252C): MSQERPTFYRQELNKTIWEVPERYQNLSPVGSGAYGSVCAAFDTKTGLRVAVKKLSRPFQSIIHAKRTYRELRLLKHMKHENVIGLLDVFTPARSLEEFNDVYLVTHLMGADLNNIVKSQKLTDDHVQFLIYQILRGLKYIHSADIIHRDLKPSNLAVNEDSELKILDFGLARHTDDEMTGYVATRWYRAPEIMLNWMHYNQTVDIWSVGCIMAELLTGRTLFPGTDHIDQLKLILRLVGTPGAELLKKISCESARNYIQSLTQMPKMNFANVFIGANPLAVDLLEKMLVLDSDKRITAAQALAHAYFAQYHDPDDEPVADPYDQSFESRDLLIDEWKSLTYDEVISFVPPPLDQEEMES
Nature of the assay: FLiK direct binding assay, acrylodan-labeled p38α (S252C) MAPK insert / lipid binding site. The note with it: binding to p38α MAPK insert; ratiometric acrylodan emission; each concentration in triplicate. How it is done:
The human p38α kinase construct containing the mutations required for specific labeling (C119S/C162S/S252C) as well as wild type p38α were cloned into a pOPINF vector and transformed as an N-terminal His-tag construct with a PreScission Protease cleavage site into BL21(DE3) Codon+RIL E. coli. Protein expression, purification, fluorophore labeling and verification of mono-labeling of the kinase were performed essentially as described previously. Labeling of the mutant p38α protein with thiol-reactive acrylodan was carried out by adding a 1.5∶1 molar excess of the fluorophore (dissolved in DMSO) to the purified protein in 50 mM Hepes Buffer (pH 7.0). The mixture was allowed to react in the dark overnight at 4°C. Unreacted acrylodan was subsequently removed by three cycles of buffer exchange into FLiK Measurement Buffer (50 mM Hepes Buffer, pH 7.4+200 mM NaCl) using a 10k-MWCO Centricon. The protein was concentrated to ∼200 μM, aliquoted and frozen at −80°C. Mono-labeling of the protein was verified by ESI-MS as described previously, [24].
Characterization of the fluorescence response of MAP insert-labeled p38α was carried out as described previously for p38α labeled on the activation loop. […] Briefly, a polystyrene cuvette containing a suspension of 50 nM acrylodan-labeled p38α in FLiK Buffer was excited at 386 nm and emission spectra were measured in the absence and presence of increasing concentrations of 1b. The compound was dissolved in 100% DMSO and delivered in sequential small doses to a single sample. […] Ratiometric fluorescence readouts are advantageous in that they provide an internal correction for small errors in sample volume which can affect signal intensity. All measurements of the cuvettes were made with a JASCO FP-6500 fluorescence spectrophotometer (JASCO GmbH, Germany).
The assay was adapted to high-throughput screening formats which enabled KD values to be determined in black small volume assay plates. Briefly, a dilution series of each compound was first prepared in 100% DMSO at 20X the desired final concentration and 1 μL was transferred to the assay plate. Compounds were then mixed with 19 µL of FLiK Buffer (supplemented with 0.01% Triton X-100) containing acrylodan-labeled p38α (100 nM). The final concentration of compound in the dilution series ranged from 0–50 μM (5% v/v DMSO final). Plates were covered with an adhesive aluminum foil and incubated for 30 min at RT prior to measurement of emission intensities at 470 and 520 nm using a Tecan Safire^2 plate reader. […] Binding curves were plotted using the ratio R = I520/I470 to determine the KD.

For assay [1], the system named is panel of 95 different kinases. Nature of the assay: Kinase selectivity profile, 33P-ATP filter-binding assay (whole panel). Format: biochemical. The note with it: 10 µM; 95 kinases. The protocol: Figure 5 Kinase selectivity profile of 1b. Compound 1b was profiled against a selected panel of 95 different kinases at a concentration of 10 µM employing a radioactive (^33P-ATP) filter-binding assay (National Centre for Protein Kinase Profiling, Dundee). The numbers represent the remaining kinase activity in %. […]

Chain of TTK (P33981 whole entry): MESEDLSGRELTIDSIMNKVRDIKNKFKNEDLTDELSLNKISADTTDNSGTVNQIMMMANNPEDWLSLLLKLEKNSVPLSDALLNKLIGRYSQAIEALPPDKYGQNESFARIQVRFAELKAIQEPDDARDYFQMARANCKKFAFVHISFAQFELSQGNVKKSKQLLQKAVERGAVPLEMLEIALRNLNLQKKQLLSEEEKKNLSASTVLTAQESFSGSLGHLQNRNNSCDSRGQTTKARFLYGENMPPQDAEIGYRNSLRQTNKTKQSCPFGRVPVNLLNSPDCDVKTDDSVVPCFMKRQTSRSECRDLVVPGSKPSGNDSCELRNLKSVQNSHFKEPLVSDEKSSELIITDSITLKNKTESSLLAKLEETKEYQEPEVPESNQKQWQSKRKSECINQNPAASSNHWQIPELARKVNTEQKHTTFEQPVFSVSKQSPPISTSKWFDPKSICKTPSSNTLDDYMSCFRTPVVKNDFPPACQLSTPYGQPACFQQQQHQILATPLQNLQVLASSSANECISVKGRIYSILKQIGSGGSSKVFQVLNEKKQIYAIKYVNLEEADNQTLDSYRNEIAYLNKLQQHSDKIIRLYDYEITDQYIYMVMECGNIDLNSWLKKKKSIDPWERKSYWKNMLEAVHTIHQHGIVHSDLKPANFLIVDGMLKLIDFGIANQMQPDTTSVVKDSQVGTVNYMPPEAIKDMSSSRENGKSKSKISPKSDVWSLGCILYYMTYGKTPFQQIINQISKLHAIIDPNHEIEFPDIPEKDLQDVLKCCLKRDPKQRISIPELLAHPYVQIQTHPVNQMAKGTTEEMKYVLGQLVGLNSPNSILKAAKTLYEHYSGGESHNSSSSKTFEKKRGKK
Chain of SRPK1 (Q96SB4 whole entry): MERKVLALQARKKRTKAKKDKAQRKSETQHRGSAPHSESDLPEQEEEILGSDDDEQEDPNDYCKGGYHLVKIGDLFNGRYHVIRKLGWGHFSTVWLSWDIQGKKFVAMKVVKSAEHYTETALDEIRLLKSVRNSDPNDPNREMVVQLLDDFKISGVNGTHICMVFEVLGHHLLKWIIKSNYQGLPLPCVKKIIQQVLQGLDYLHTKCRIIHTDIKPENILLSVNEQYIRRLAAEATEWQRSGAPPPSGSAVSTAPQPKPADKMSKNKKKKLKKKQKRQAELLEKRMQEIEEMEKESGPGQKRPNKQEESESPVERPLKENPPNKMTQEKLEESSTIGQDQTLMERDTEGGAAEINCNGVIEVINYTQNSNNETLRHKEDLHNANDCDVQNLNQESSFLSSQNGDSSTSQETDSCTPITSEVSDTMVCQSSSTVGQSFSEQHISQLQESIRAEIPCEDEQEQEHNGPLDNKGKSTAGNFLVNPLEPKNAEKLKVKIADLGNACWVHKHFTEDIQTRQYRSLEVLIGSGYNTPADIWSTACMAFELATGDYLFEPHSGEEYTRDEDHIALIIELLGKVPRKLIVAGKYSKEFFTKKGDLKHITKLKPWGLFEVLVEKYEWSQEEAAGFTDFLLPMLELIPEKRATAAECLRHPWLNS
Chain of YES1 (P07947 whole entry): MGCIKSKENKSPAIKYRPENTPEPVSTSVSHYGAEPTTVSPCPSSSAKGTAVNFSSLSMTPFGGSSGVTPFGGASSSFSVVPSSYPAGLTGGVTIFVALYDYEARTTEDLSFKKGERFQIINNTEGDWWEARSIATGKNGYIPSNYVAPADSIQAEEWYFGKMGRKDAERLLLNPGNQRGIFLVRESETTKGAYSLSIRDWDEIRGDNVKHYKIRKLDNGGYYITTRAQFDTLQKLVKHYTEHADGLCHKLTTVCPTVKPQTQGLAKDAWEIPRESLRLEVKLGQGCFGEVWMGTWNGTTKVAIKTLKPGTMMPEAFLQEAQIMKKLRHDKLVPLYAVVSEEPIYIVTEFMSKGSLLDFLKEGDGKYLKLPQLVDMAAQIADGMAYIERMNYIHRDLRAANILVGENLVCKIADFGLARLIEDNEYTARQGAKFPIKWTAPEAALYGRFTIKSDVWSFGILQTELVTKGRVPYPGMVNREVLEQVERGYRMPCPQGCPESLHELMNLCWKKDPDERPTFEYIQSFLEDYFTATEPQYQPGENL
Chain of Lck (P06239 whole entry): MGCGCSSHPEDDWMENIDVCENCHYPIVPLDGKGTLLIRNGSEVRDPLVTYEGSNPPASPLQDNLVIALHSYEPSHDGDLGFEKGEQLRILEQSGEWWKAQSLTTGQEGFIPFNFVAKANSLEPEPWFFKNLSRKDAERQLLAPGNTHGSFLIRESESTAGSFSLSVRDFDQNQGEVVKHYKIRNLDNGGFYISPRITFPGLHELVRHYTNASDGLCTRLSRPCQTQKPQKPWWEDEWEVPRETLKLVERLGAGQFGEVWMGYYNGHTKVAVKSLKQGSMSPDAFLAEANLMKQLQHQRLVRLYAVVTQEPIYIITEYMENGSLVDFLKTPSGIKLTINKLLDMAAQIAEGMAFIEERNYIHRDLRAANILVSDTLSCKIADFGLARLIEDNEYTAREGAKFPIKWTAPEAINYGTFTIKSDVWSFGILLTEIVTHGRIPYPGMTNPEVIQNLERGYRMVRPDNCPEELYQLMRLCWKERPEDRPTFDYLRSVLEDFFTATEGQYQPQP

For `Nc1ccc2c(NC3CC3)nc(-c3ccccc3)nc2c1` [1b, N^4-Cyclopropyl-2-phenyl-4,7-quinazolinediamine], the remaining activity (usually the signal under treatment as a percentage of the control signal) at 10 µM at Lck turned out to be 80%; on PIM2, 76%; on NEK2α, 119%; at TTK it was 92%; at PIM3 it was 77%; on SRPK1, 83%. For the same compound, the results for the remaining activity at 10 µM on YES1 and at MAPKAP-K2 were 96% and 98%, respectively. Further, the pKd (usually the Kd on a negative log10 scale, so that one unit is a factor of ten) at p38α MAPK insert was ~5.62 and 5.62. In addition, the “inhibition of enzymatic activity across kinase panel” value in assay [1] is on record as “does not inhibit enzymatic activity of any of the tested kinases”.
